Measured values from USRE30241E, “Esters of 3-(hydroxy or hydroxymethyl)-4-hydroxyphenyl aminomethyl ketones” (Sterling Drug Inc., priority 1970, dated 1980).
Read-outs that look alike come from different tables or passages of the source.

Key:
heart rate = assay: Cardiovascular studies: effect on the heart rate in the anesthetized dog; format: in vivo
Description: The effect of a rapid intravenous injection on the heart rate the heart rate was conducted in anesthetized dogs under normal respiration. A few open-chest dogs were also tested. Increase in heart rate was measured by using an electrocardiograph attached to the dog. Readings were taken every 0.5-1 minute for the first 10 minutes and every 2-5 minutes thereafter until recovery. In some cases, several doses and more than one compound were tested alternately in the same dog. The blood pressure effect was simultaneously recorded.

[1] = tested on: carbachol- or histamine-induced bronchoconstriction; assay: Bronchodilator Test Method I, anesthetized dog, intravenous activity; format: in vivo; conditions: Canis lupus familiaris, read-out: Bronchodilatation; for inhibition in vivo at 0.0013 mg/kg: 1.3 mcg/kg i.v.; for inhibition in vivo at 0.0065 mg/kg: 6.5 mcg/kg i.v.; for inhibition in vivo at 0.0325 mg/kg: 32.5 mcg/kg i.v.; for inhibition in vivo at 0.008 mg/kg: 8 mcg/kg i.v.; for inhibition in vivo at 0.032 mg/kg: 32 mcg/kg i.v.; for inhibition in vivo at 0.128 mg/kg: 128 mcg/kg i.v.
In short: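 Pentobarbital-anesthetized (30 mg/kg i.v.), open-chest, artificially ventilated dogs were given i.v. carbachol (4-6 µg/kg) or histamine diphosphate (35-45 µg/kg). Test compound was given i.v. mixed with, after, or 1-10 min before the constrictor.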

[2] = tested on: carbachol- or histamine-induced bronchoconstriction; assay: Bronchodilator Test Method I, anesthetized dog, intraduodenal activity; format: in vivo; conditions: Canis lupus familiaris, read-out: Bronchodilation; for inhibition in vivo at 0.032 mg/kg: 32 mcg/kg (salt) intraduodenal; for inhibition in vivo at 0.128 mg/kg: 128 mcg/kg (salt) intraduodenal
Description: Male and female dogs weighing 9-18 kg. each were anesthetized with pentobarbital sodium (30 mg./kg. i.v.). Each animal, with thorax opened at the midsternum, was maintained under artificial ventilation using a constant volume pump (250 ml./stroke; 10 to 12 strokes per minute) attached to the tracheal cannula. The flow of air was controlled by a glass or plastic valve which closed and opened respectively on inflow and outflow of the air to and from the tracheal cannula. Bronchoconstriction and/or bronchodilatation were measured from changes in the basal airway pressure reflected by a transducer attached to the sidearm of the cannula relayed to a polygraph.
Control bronchoconstrictions were induced by intravenous injections of carbachol (choline chloride carbamate) in doses ranging from 4 to 6 micrograms per kilogram or histamine diphosphate in doses ranging from 35 to 45 micrograms per kilogram. In the majority of test animals, the above doses of constrictor agents produced a 100-200 percent increase in the normal airway pressure or amplitude.
Injections were repeated at 20-30 minutes.
In intraduodenal studies, in the dog prepared for bronchodilation measurements, the duodenal segment of the small intestine was made easily accessible through a small mid-line incision in the abdomen. The test solution was injected into the duodenum using a fine needle. Commencing 5 minutes after medication, the degree and duration of bronchodilation were tested by injecting a control dose of carbachol or histamine at intervals of 30-60 minutes until the recovery or near-recovery was apparent. In some dogs showing an early recovery, a reference drug was also tested in the same dog 1.5-2 hours after the first medicine.

[3] = tested on: guinea pig bronchioles constricted by carbachol; assay: Bronchodilator Test Method II, in vitro perfused guinea pig lung
Description: In this method bronchodilator activity in vitro was determined by testing the effect of graded doses of the test compounds on guinea pig bronchioles constricted by carbachol, using the technique reported by Sollman and von Oettingen, Proc. Soc, Exp. Biol. Med., 25,692 (1928) as modified by Tainter, Pedden, and James, J. Pharm. Exp. Ther., 51, 371 (1934) and by Luduena, von Euler, Tullar, and Lands, Arch. intern. Pharmacol., III, 392 (1957).

In the case of `CC(=O)Oc1ccc(C(O)CNC(C)(C)C)cc1OC(=O)C12CC3CC(CC(C3)C1)C2` (stereo not drawn) [Example 148, 3-(1-adamantanecarbonyloxy)-4-acetoxy-alpha-(tert-butylaminomethyl)benzyl alcohol methanesulfonate], the “Mean Maximal Increase in the Heart Rate” value (heart rate; 6.5 mcg/kg (salt) i.v.) is reported as 32 Beats/Minute, the “Mean Maximal Increase in the Heart Rate” value (heart rate; 32.5 mcg/kg (salt) i.v.) is reported as 58 Beats/Minute and the inhibition in vivo at 0.0013 mg/kg ([1]; 5 min, 5 min) is reported as 21%. It also gave an inhibition in vivo at 0.0065 mg/kg ([1]; 5 min, 5 min) of 47%, an inhibition in vivo at 0.0325 mg/kg ([1]; 5 min, 5 min) of 95% and an inhibition in vivo at 0.0013 mg/kg ([1]; 0.5 h, 30 min) of 1%. It also gave an inhibition in vivo at 0.0065 mg/kg ([1]; 0.5 h, 30 min) of 30%, an inhibition in vivo at 0.0325 mg/kg ([1]; 0.5 h, 30 min) of 66% and an inhibition in vivo at 0.0013 mg/kg ([1]; 1 h, 60 min) of 10%. It also gave an inhibition in vivo at 0.0065 mg/kg ([1]; 1 h, 60 min) of 23%, an inhibition in vivo at 0.0325 mg/kg ([1]; 1 h, 60 min) of 54% and an inhibition in vivo at 0.0013 mg/kg ([1]; 2 h, 120 min) of 16%. For the same molecule, the inhibition in vivo at 0.0065 mg/kg ([1]; 2 h, 120 min) was 15%, the inhibition in vivo at 0.0325 mg/kg ([1]; 2 h, 120 min) was 39% and the inhibition in vivo at 0.0065 mg/kg ([1]; 3 h, 180 min) was 13%. For the same molecule, the inhibition in vivo at 0.0325 mg/kg ([1]; 3 h, 180 min) was 28% and the inhibition in vivo at 0.0325 mg/kg ([1]; 4 h, 240 min) was 14%.
`CC(=O)OCc1cc(C(O)CNC(C)(C)C)ccc1OC(=O)c1ccc(C)cc1` (stereo not drawn) [Example 150, 3-acetoxymethyl-4-(p-toluyloxy)-alpha-(tert-butylaminomethyl)benzyl alcohol methanesulfonate] gave an inhibition in vivo at 0.032 mg/kg ([2]; 5 min, 5 min) of 12%, an inhibition in vivo at 0.128 mg/kg ([2]; 5 min, 5 min) of 68% and an inhibition in vivo at 0.032 mg/kg ([2]; 0.5 h, 30 min) of 12%. For the same molecule, the inhibition in vivo at 0.128 mg/kg ([2]; 0.5 h, 30 min) was 68%, the inhibition in vivo at 0.032 mg/kg ([2]; 1 h, 60 min) was 12% and the inhibition in vivo at 0.128 mg/kg ([2]; 1 h, 60 min) was 61%. For the same molecule, the inhibition in vivo at 0.032 mg/kg ([2]; 2 h, 120 min) was 0%, the inhibition in vivo at 0.128 mg/kg ([2]; 2 h, 120 min) was 61% and the inhibition in vivo at 0.032 mg/kg ([2]; 3 h, 180 min) was 0%. It also gave an inhibition in vivo at 0.128 mg/kg ([2]; 3 h, 180 min) of 45%, an inhibition in vivo at 0.128 mg/kg ([2]; 4 h, 240 min) of 39% and an inhibition in vivo at 0.008 mg/kg ([1]; 5 min, 5 min) of 42%. It also gave an inhibition in vivo at 0.032 mg/kg ([1]; 5 min, 5 min) of 64%, an inhibition in vivo at 0.128 mg/kg ([1]; 5 min, 5 min) of 85% and an inhibition in vivo at 0.008 mg/kg ([1]; 0.5 h, 30 min) of 37%. For the same molecule, the inhibition in vivo at 0.032 mg/kg ([1]; 0.5 h, 30 min) was 66%, the inhibition in vivo at 0.128 mg/kg ([1]; 0.5 h, 30 min) was 87% and the inhibition in vivo at 0.008 mg/kg ([1]; 1 h, 60 min) was 44%. It also gave an inhibition in vivo at 0.032 mg/kg ([1]; 1 h, 60 min) of 54%, an inhibition in vivo at 0.128 mg/kg ([1]; 1 h, 60 min) of 67% and an inhibition in vivo at 0.008 mg/kg ([1]; 2 h, 120 min) of 44%. For the same molecule, the inhibition in vivo at 0.032 mg/kg ([1]; 2 h, 120 min) was 40%, the inhibition in vivo at 0.128 mg/kg ([1]; 2 h, 120 min) was 60% and the inhibition in vivo at 0.008 mg/kg ([1]; 3 h, 180 min) was 32%. For the same molecule, the inhibition in vivo at 0.032 mg/kg ([1]; 3 h, 180 min) was 30%, the inhibition in vivo at 0.128 mg/kg ([1]; 3 h, 180 min) was 52% and the inhibition in vivo at 0.008 mg/kg ([1]; 4 h, 240 min) was 20%. The inhibition in vivo at 0.032 mg/kg ([1]; 4 h, 240 min) was 0%, the inhibition in vivo at 0.128 mg/kg ([1]; 4 h, 240 min) was 24% and the “ED50 (printed in brackets, footnote **ED50)” value ([3]; carbachol (Doryl) 1:5 million) was 9.3 µg (base). The “Duration, Mean” value ([3]; dose 10 mcg (base)) was 25.5 ± 16.2 min.
